# Several values for one entry are separate records, joined by “and”; a condition that tells them apart may be missing. Identical values can stand only once. Numbers after ± are expanded uncertainties.
# Settings: Liquid, Calculated from knudsen effusion weight loss
smiles,measurement,setting,value
CCCc1cc(=O)[nH]c(=S)[nH]1 [6-propyl-2-thiouracil],vapor or sublimation pressure,401.14 K,0.000103 ± 5e-06 kPa and 0.000101 ± 5e-06 kPa and 9.7e-05 ± 5e-06 kPa
same,vapor or sublimation pressure,403.18 K,0.000124 ± 6e-06 kPa and 0.000123 ± 6e-06 kPa and 0.000118 ± 6e-06 kPa
same,vapor or sublimation pressure,405.17 K,0.000151 ± 8e-06 kPa and 0.000144 ± 7e-06 kPa
same,vapor or sublimation pressure,407.15 K,0.000196 ± 1e-05 kPa and 0.000185 ± 9e-06 kPa and 0.000178 ± 9e-06 kPa
same,vapor or sublimation pressure,409.17 K,0.000231 ± 1.2e-05 kPa and 0.000224 ± 1.1e-05 kPa and 0.000216 ± 1.1e-05 kPa
same,vapor or sublimation pressure,411.16 K,0.000274 ± 1.4e-05 kPa and 0.000265 ± 1.3e-05 kPa
same,vapor or sublimation pressure,413.15 K,0.000332 ± 1.7e-05 kPa and 0.000325 ± 1.6e-05 kPa and 0.000317 ± 1.6e-05 kPa
same,vapor or sublimation pressure,415.17 K,0.00041 ± 2.1e-05 kPa and 0.000398 ± 2e-05 kPa and 0.000382 ± 1.9e-05 kPa
same,vapor or sublimation pressure,417.18 K,0.000484 ± 2.4e-05 kPa and 0.000485 ± 2.4e-05 kPa and 0.000468 ± 2.3e-05 kPa
same,vapor or sublimation pressure,419.15 K,0.000583 ± 2.9e-05 kPa and 0.000558 ± 2.8e-05 kPa
same,vapor or sublimation pressure,421.22 K,0.000714 ± 3.6e-05 kPa and 0.000706 ± 3.5e-05 kPa and 0.00068 ± 3.4e-05 kPa
same,vapor or sublimation pressure,423.21 K,0.000853 ± 4.3e-05 kPa and 0.000839 ± 4.2e-05 kPa and 0.00083 ± 4.2e-05 kPa

# — the NIST ThermoML archive (doi:10.1016/j.tca.2014.04.018)
